Reference: patent US20050043292A1, “Fluorinated lysine derivatives as dipeptidyl peptidase IV inhibitors” (Pfizer Inc, priority 2003, published 2005)
Structures can show the parent of a compound that is named as a salt.

Biological target: T1, DPP-IV (Homo sapiens, UniProt P27487)
T1 construct: purchased Enzyme Systems Products SPE-01
Test: In vitro Assay for Dipeptidyl Peptidase Inhibition
Format: biochemical
Conditions: in vitro activity, Gly-Pro-4-methoxy-β-naphthylamide substrate, overnight at 37° C., read-out: IC50 (concentration of test compound required for 50% inhibition)
Experimental: 150 μL of an enzyme-substrate solution is pipetted into microtiter wells of a polystyrene 96-well plate, and maintained at 4° C. The enzyme-substrate solution comprises 50 μM Gly-Pro4-methoxy B naphthylamide HCl in 50 mM Tris assay buffer pH 7.3 containing 0.1M sodium chloride, 0.1% (v/v) Triton and 50 μU/mL DPP-IV (Enzyme Systems Products Cat#SPE-01, DPP-IV 5 mU/mL stock). 5μL/well of compounds of Formula I are added, bringing the final compound of Formula I concentrations to 3 μM-10 nM per well.
Controls. Enzyme is omitted from four (4) wells, as a reagent blank. 5 μL of 3 mM Diprotin A is added to four wells as a positive quality control, providing a final Diprotin A concentration of 100 μM. To measure total enzyme activity (i.e. a negative control), without the influence of any compounds of Formula I, 5 μL of distilled water is added to four wells.
The entire assay is incubated overnight (about 14-18 hours) at 37° C.

T1 sequence (P27487 whole entry, species assumed): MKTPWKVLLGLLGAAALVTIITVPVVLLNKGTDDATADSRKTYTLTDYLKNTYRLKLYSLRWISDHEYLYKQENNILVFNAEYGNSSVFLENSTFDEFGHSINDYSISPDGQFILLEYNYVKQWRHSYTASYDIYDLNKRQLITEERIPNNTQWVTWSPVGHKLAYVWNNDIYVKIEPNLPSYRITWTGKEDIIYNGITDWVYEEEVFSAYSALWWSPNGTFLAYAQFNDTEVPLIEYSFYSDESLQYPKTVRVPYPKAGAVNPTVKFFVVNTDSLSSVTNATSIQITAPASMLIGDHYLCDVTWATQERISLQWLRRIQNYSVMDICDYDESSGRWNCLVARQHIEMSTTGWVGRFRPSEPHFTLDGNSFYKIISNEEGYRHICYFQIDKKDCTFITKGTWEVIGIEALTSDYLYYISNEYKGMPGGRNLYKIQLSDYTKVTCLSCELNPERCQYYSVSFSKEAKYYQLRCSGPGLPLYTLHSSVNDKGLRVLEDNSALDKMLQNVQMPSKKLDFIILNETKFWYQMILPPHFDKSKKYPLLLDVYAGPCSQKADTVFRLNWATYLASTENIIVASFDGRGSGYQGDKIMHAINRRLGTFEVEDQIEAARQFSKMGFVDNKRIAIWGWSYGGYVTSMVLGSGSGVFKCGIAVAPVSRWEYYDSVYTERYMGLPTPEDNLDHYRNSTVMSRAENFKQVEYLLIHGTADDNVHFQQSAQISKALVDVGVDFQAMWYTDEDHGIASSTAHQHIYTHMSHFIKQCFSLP

Q: Which IC50 does the source give for `N[C@@H](CCCCNC(=O)COc1ccccc1)C(=O)N1CC(F)(F)C(F)(F)C1` [Example 6, (S)-N-[5-Amino-6-oxo-6-(3,3,4,4-tetrafluoro-pyrrolidin-1-yl)-hexyl]-2-phenoxy-acetamide Hydrochloride] here?
A: ~1.4 µM
